In patent US20240174618A1, “SUBSTITUTED (2-HETEROARYLOXYPHENYL)SULFONATES, SALTS THEREOF AND THEIR USE AS HERBICIDAL AGENTS” (Bayer Aktiengesellschaft, priority 2021, published 2024):

What was measured:
Type in all cases: in vivo
[1] = tested on: Abutilon theophrasti (ABUTH); experiment: C. Herbicidal pre-emergence efficacy, ABUTH; settings: scored after about 3 weeks
Description: (§1) Seeds of monocotyledonous and dicotyledonous weed plants and crop plants were placed in plastic or organic planting pots and covered with soil. The compounds of the invention, formulated in the form of wettable powders (WP) or as emulsion concentrates (EC), were then applied to the surface of the covering soil as aqueous suspension or emulsion with addition of 0.5% additive at a water application rate equivalent to 600 l/ha (converted). After the treatment, the pots were placed in a greenhouse and kept under good growth conditions for the test plants. After about 3 weeks, the efficacy of the preparations was scored visually in comparison with untreated controls as percentages. For example, • 100% efficacy=plants have died, • 0% efficacy=like untreated control plants.
(§2) Tables C1a to C14b below show the effects of selected compounds of the general formula (I) according to table 1 on various harmful plants at an application rate corresponding to 320 g/ha or less, which were obtained by the experimental procedure mentioned above.

[2] = tested on: Alopecurus myosuroides (ALOMY); experiment: C. Herbicidal pre-emergence efficacy, ALOMY; settings: 320 g/ha, scored after about 3 weeks
Description: as §1, §2

[3] = tested on: Amaranthus retroflexus (AMARE); experiment: E. Herbicidal post-emergence efficacy, AMARE
Description: (§3) Seeds of monocotyledonous and dicotyledonous weeds and crop plants were placed in sandy loam in plastic or organic planting pots, covered with soil and cultivated in a greenhouse under controlled growth conditions. 2 to 3 weeks after sowing, the test plants were treated at the one-leaf stage. The compounds of the invention, formulated in the form of wettable powders (WP) or as emulsion concentrates (EC), were then sprayed onto the green parts of the plants as aqueous suspension or emulsion with addition of 0.5% additive at a water application rate of 600 l/ha (converted). After the test plants had been kept in the greenhouse under optimum growth conditions for about 3 weeks, the activity of the preparations was rated visually in comparison to untreated controls.
(§4) For example, • 100% efficacy=plants have died, • 0% action=like untreated control plants.
(§5) Tables E1a to E12b below show the effects of selected compounds of the general formula (I) according to table 1 on various harmful plants at an application rate corresponding to 320 g/ha or less, which were obtained by the experimental procedure mentioned above.

Viola tricolor (VIOTR) [4] = experiment: E. Herbicidal post-emergence efficacy, VIOTR
Description: as §3, §4, §5

Setaria viridis (SETVI) [5] = experiment: C. Herbicidal pre-emergence efficacy, SETVI; settings: scored after about 3 weeks
Description: as §1, §2

[6] = tested on: Abutilon theophrasti (ABUTH); experiment: E. Herbicidal post-emergence efficacy, ABUTH
Description: as §3, §4, §5

[7] = tested on: Polygonum convolvulus (POLCO); experiment: E. Herbicidal post-emergence efficacy, POLCO; settings: application rate 320 g/ha
Description: as §3, §4, §5

Veronica persica (VERPE) [8] = experiment: C. Herbicidal pre-emergence efficacy, VERPE; settings: scored after about 3 weeks
Description: as §1, §2

[9] = tested on: Pharbitis purpurea (PHBPU); experiment: E. Herbicidal post-emergence efficacy, PHBPU
Description: as §3, §4, §5

Zea mays (ZEAMX) = experiment: F. Post-emergence effect on useful plants, ZEAMX; settings: useful plant, application rate 80 g/ha
Description: as §3, §4
(§6) Tables F1a to F4 below show the effects of selected compounds of the general formula (I) according to table 1 on various useful plants at an application rate corresponding to 320 g/ha or less, which were obtained by the experimental procedure mentioned above.

[10] = tested on: Digitaria sanguinalis (DIGSA); experiment: E. Herbicidal post-emergence efficacy, DIGSA; settings: application rate 320 g/ha
Description: as §3, §4, §5

[11] = tested on: Echinochloa crus-galli (ECHCG); experiment: C. Herbicidal pre-emergence efficacy, ECHCG; settings: scored after about 3 weeks
Description: as §1, §2

Kochia scoparia (KCHSC) [12] = experiment: C. Herbicidal pre-emergence efficacy, KCHSC
Description: as §1, §2

Kochia scoparia (KCHSC) [13] = experiment: E. Herbicidal post-emergence efficacy, KCHSC
Description: as §3, §4, §5

[14] = tested on: Polygonum convolvulus (POLCO); experiment: C. Herbicidal pre-emergence efficacy, POLCO; settings: scored after about 3 weeks
Description: as §1, §2

[15] = tested on: Triticum aestivum (TRZAS); experiment: F. Post-emergence effect on useful plants, TRZAS; settings: useful plant, application rate 80 g/ha
Description: as §3, §4, §6

Setaria viridis (SETVI) [16] = experiment: E. Herbicidal post-emergence efficacy, SETVI
Description: as §3, §4, §5

[17] = tested on: Echinochloa crus-galli (ECHCG); experiment: E. Herbicidal post-emergence efficacy, ECHCG
Description: as §3, §4, §5

Veronica persica (VERPE) [18] = experiment: E. Herbicidal post-emergence efficacy, VERPE
Description: as §3, §4, §5

Viola tricolor (VIOTR) [19] = experiment: C. Herbicidal pre-emergence efficacy, VIOTR
Description: as §1, §2

[20] = tested on: Amaranthus retroflexus (AMARE); experiment: C. Herbicidal pre-emergence efficacy, AMARE; settings: scored after about 3 weeks
Description: as §1, §2

[21] = tested on: Digitaria sanguinalis (DIGSA); experiment: C. Herbicidal pre-emergence efficacy, DIGSA; settings: scored after about 3 weeks
Description: as §1, §2

[22] = tested on: Triticum aestivum (TRZAS); experiment: D. Pre-emergence effect on useful plants, TRZAS; settings: useful plant, application rate 80 g/ha
Description: as §1
Tables D1a to D5b below show the effects of selected compounds of the general formula (I) according to table 1 on various useful plants at an application rate corresponding to 320 g/ha or less, which were obtained by the experimental procedure mentioned above.

Lolium rigidum (LOLRI) = experiment: C. Herbicidal pre-emergence efficacy, LOLRI; settings: 320 g/ha, scored after about 3 weeks
Description: as §1, §2

Post-emergence efficacy against ZEAMX in % (Zea mays (ZEAMX)): 20% | Post-emergence efficacy against TRZAS in % [15]: 20% | Pre-emergence efficacy against TRZAS in % [22]: 0%
SMILES: O=S(=O)(CCC(F)=C(F)F)Oc1c(F)cccc1Oc1ncc(Cl)cn1 [Example I-70]
Pre-emergence efficacy against ABUTH ([1]; 80 g/ha): 80% | Pre-emergence efficacy against ABUTH ([1]; 320 g/ha): 100% | Pre-emergence efficacy against ALOMY [2]: 100% | Post-emergence efficacy against AMARE in % ([3]; application rate 80 g/ha): 100% | Post-emergence efficacy against AMARE in % ([3]; application rate 320 g/ha): 100% | Post-emergence efficacy against VIOTR in % (Viola tricolor (VIOTR) [4]; application rate 80 g/ha): 100% | Post-emergence efficacy against VIOTR in % (Viola tricolor (VIOTR) [4]; application rate 320 g/ha): 100% | Pre-emergence efficacy against SETVI (Setaria viridis (SETVI) [5]; 80 g/ha): 90% | Pre-emergence efficacy against SETVI (Setaria viridis (SETVI) [5]; 320 g/ha): 100% | Post-emergence efficacy against ABUTH in % ([6]; application rate 80 g/ha): 80% | Post-emergence efficacy against ABUTH in % ([6]; application rate 320 g/ha): 90% | Post-emergence efficacy against POLCO in % [7]: 100% | Pre-emergence efficacy against VERPE (Veronica persica (VERPE) [8]; 80 g/ha): 80% | Pre-emergence efficacy against VERPE (Veronica persica (VERPE) [8]; 320 g/ha): 100% | Post-emergence efficacy against PHBPU in % ([9]; application rate 80 g/ha): 80% | Post-emergence efficacy against PHBPU in % ([9]; application rate 320 g/ha): 100% | Post-emergence efficacy against DIGSA in % [10]: 90% | Pre-emergence efficacy against ECHCG ([11]; 80 g/ha): 90% | Pre-emergence efficacy against ECHCG ([11]; 320 g/ha): 100% | Pre-emergence efficacy against KCHSC in % (Kochia scoparia (KCHSC) [12]; application rate 80 g/ha): 100% | Pre-emergence efficacy against KCHSC in % (Kochia scoparia (KCHSC) [12]; application rate 320 g/ha): 100% | Post-emergence efficacy against KCHSC in % (Kochia scoparia (KCHSC) [13]; application rate 80 g/ha): 90% | Post-emergence efficacy against KCHSC in % (Kochia scoparia (KCHSC) [13]; application rate 320 g/ha): 100% | Pre-emergence efficacy against POLCO ([14]; 80 g/ha): 100% | Pre-emergence efficacy against POLCO ([14]; 320 g/ha): 100% | Post-emergence efficacy against SETVI in % (Setaria viridis (SETVI) [16]; application rate 80 g/ha): 100% | Post-emergence efficacy against SETVI in % (Setaria viridis (SETVI) [16]; application rate 320 g/ha): 100% | Post-emergence efficacy against ECHCG in % ([17]; application rate 80 g/ha): 80% | Post-emergence efficacy against ECHCG in % ([17]; application rate 320 g/ha): 100% | Post-emergence efficacy against VERPE in % (Veronica persica (VERPE) [18]; application rate 80 g/ha): 100% | Post-emergence efficacy against VERPE in % (Veronica persica (VERPE) [18]; application rate 320 g/ha): 100% | Pre-emergence efficacy against VIOTR in % (Viola tricolor (VIOTR) [19]; application rate 80 g/ha): 100% | Pre-emergence efficacy against VIOTR in % (Viola tricolor (VIOTR) [19]; application rate 320 g/ha): 100% | Pre-emergence efficacy against AMARE ([20]; 80 g/ha): 100% | Pre-emergence efficacy against AMARE ([20]; 320 g/ha): 100% | Pre-emergence efficacy against DIGSA ([21]; 80 g/ha): 100% | Pre-emergence efficacy against DIGSA ([21]; 320 g/ha): 100% | Pre-emergence efficacy against LOLRI (Lolium rigidum (LOLRI)): 100%
